Source: PMC12045974, “T cell toxicity induced by tigecycline binding to the mitochondrial ribosome” (Nature Communications, 2025)
Where “and” joins values, the source holds several entries; their conditions need not be identical. Equal entries are not always repeated.

How the values were obtained:
[1] = test system: mitochondrial translation in CD4+ and CD8+ T cells; assay: Mito-FUNCAT-FACS assay of mitochondrial translation on activated T cells; assay type: cell-based, human; conditions: for mitochondrial translation (fold change relative to negative control): per PBMC donor
Procedure: Thawed PBMCs were washed with RPMI ( + 10% FBS, 2.05 mM L-glutamine (Sigma), and 55 μM 2-ME (Gibco)) before resting at 37 °C (5% CO2) for 30 min. After counting, cells were resuspended in FACS buffer at a density of 5 × 10^7 cells/ml. T cells were isolated using EasySep™ Human T Cell Isolation Kit (Stemcell Technologies). Purified T cells were counted and 85,000 cells per well seeded onto 96-well U-bottom plates with/without Human T-Activator CD3/CD28 beads (Invitrogen) at a 1:2.8 cell:bead ratio and 10 ng/ml IL-2 (Proteintech) in RPMI-1640 ( + 10% FBS, 2.05 mM L-glutamine (Sigma), and 55 μM 2-ME (Gibco)) for 48 h. To assess mitochondrial translation, activated T cells were washed twice with methionine/cysteine/pyruvate-free DMEM and incubated in methionine-depletion medium (DMEM supplemented with 10% dialyzed FBS, 1× GlutaMAX, 1× sodium pyruvate, and 0.2 mM L-cystine) for 30 min at 37 °C. To inhibit cytosolic translation, anisomycin (100 μg/mL) was added to the medium. For mitochondrial translation inhibition, 100 µg/mL chloramphenicol (309 μM, positive control) or tigecycline (2.5−10 μM) were added to the medium. Cells were then labeled with 50 μM L-homopropargylglycine (HPG) for 3 h at 37 °C, during which time the medium still contained antibiotics.
Following HPG labeling, cells were collected and stained with surface markers (CD4, CD8). Cells were pre-permeabilized with 0.005% digitonin in mitochondria-protective buffer (10 mM HEPES/KOH, 10 mM NaCl, 5 mM MgCl2, 300 mM sucrose, pH 7.5) for 3 min, fixed with 4% paraformaldehyde for 10 min, and fully permeabilized with 0.25% Triton X-100 for 5 min. After blocking with 5% BSA for 10 min, incorporated HPG was detected via copper-catalyzed cycloaddition using 0.05 μM Alexa Fluor 488 picolyl azide (Click-iT™ Plus Alexa Fluor™ 488 Picolyl Azide Toolkit, Gibco) for 30 min at room temperature. Subsequently, the reaction cocktail was removed and cells resuspended in FACS buffer. Flow cytometry was carried out on a BD Celesta (BD Biosciences) and analyzed in FlowJo (TreeStar). Data are presented as fold change relative to negative controls.

[2] = test system: OXPHOS complexes; assay: Western blotting for OXPHOS complexes in Jurkat T cells and PBMCs; assay type: cell-based; conditions: Jurkat T cells and human PBMCs, 5 μM, 6 days
Procedure: Human PBMCs and Jurkat T cells were seeded in 6-well plates at a density of 1 million cells/ml and incubated with or without antibiotics in RPMI-1640 medium (with 10% FBS, 2.05 mM L-glutamine (Sigma), and 55 μM 2-ME (Gibco)) for 6 days. After centrifugation, cells were lysed in RIPA buffer containing protease and phosphatase inhibitors (cOmplete and PhosSTOP, respectively, Roche). Protein concentrations were determined by BCA (Pierce, Thermo Fisher). Protein samples were resuspended with 1× NuPAGE LDS sample buffer (Thermo Fisher) supplemented with 100 mM dithiothreitol, heated for 10 min at 75 °C, and separated on NuPAGE 4–12% Bis-Tris mini gels (Thermo Fisher) using NuPAGE 1× MES (Thermo Fisher) running buffer, and transferred to PVDF membranes (0.45 μm, Immobilon-P, Sigma) using the iBlot2 system (Invitrogen). Non-specific binding was blocked with TBST containing 5% non-fat milk, followed by overnight incubation at 4 °C with antibodies against Total OXPHOS Human WB Antibody Cocktail (Abcam, Cambridge, UK), followed by HRP-conjugated secondary antibodies for 1 h at room temperature. β-actin, HSP60, and GAPDH (Cell Signaling Technology) were used as loading control. Proteins were detected using Clarity Western ECL Substrate (Bio-Rad, 170-5061). For an example of presentation of full scan blots, see the Source Data file.

CN(C)c1cc(NC(=O)CNC(C)(C)C)c(O)c2c1C[C@H]1C[C@H]3[C@H](N(C)C)C(O)=C(C(N)=O)C(=O)[C@@]3(O)C(O)=C1C2=O [Tigecycline, tigecycline]
mitochondrial translation (fold change relative to negative control) ([1]; CD4, 2.5µM): 0.947 and 0.7157 and 0.7389
mitochondrial translation (fold change relative to negative control) ([1]; CD4, 5µM): 0.8077 and 0.645 and 0.697
mitochondrial translation (fold change relative to negative control) ([1]; CD4, 10µM): 0.7443 and 0.3992 and 0.6483 and 0.5621
mitochondrial translation (fold change relative to negative control) ([1]; CD8, 2.5µM): 0.9388 and 0.7432 and 0.8324
mitochondrial translation (fold change relative to negative control) ([1]; CD8, 5µM): 0.8134 and 0.656 and 0.7756
mitochondrial translation (fold change relative to negative control) ([1]; CD8, 10µM): 0.7567 and 0.4193 and 0.7571 and 0.5029
inhibition of mitochondrial translation ([1]; TCR-stimulated CD4+ and CD8+ T cells, 2.5-10 μM): dose-dependent inhibition of mitochondrial translation
levels of subunits of complex I (NDUFB8), complex III (UQCRCII) and complex IV (COX2) [2]: drop
levels of subunits of complex II (SDHB) and complex V (ATP5A) [2]: less affected
